Results taken from PubChem BioAssay (NCI).
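48-hour exposure; five concentrations; linearly interpolated endpoints. GI50 is the concentration that inhibits growth by half. The concentration for full growth arrest is given as TGI.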

What follows are molecules tested on NCI-H226 lung (assay: NCI tumour cell line growth inhibition, 48 h).

Point of comparison: `O=C1CC(c2ccc3c(c2)OCO3)Nc2ccccc21` (stereo not drawn), GI50 24.6 µM. Against it:
- CCC(CO)Nc1nc2ccc(Cl)cc2c2ccccc12 (stereo not drawn) — 2.2-fold lower, 11.4 µM

Point of comparison: `CCC(CO)Nc1nc2ccc(Cl)cc2c2ccccc12` (stereo not drawn), TGI 31.7 µM. Against it:
- O=C1CC(c2ccc3c(c2)OCO3)Nc2ccccc21 (stereo not drawn) — higher, > 88 µM
- FC(F)(F)c1cc(Cl)cnc1N/N=C(/c1ccccc1)c1ccccn1 — 3.9-fold lower, 8.03 µM

The molecules below were run on K-562 leukemia (assay: NCI tumour cell line growth inhibition, 48 h).

Point of comparison: `CCC(CO)Nc1nc2ccc(Cl)cc2c2ccccc12` (stereo not drawn), TGI 11.5 µM. Against it:
- O=[N+]([O-])/C(C(Cl)=C(Cl)Cl)=C(\SCc1ccccc1)N1CCCCC1 — higher, > 100 µM
- CCCN=C1CCN(Cc2ccccc2)c2ccccc2N1 — 1.7-fold higher, 19.4 µM
- O=C1CC(c2ccc3c(c2)OCO3)Nc2ccccc21 (stereo not drawn) — higher, > 100 µM
- FC(F)(F)c1cc(Cl)cnc1N/N=C(/c1ccccc1)c1ccccn1 — 4.3-fold higher, 49.9 µM

Point of comparison: `CCC(CO)Nc1nc2ccc(Cl)cc2c2ccccc12` (stereo not drawn), GI50 3.01 µM. Against it:
- O=C1CC(c2ccc3c(c2)OCO3)Nc2ccccc21 (stereo not drawn) — within 1.5-fold, 3.33 µM

The molecules below were run on OVCAR-3 ovarian (assay: NCI tumour cell line growth inhibition, 48 h).

Point of comparison: `O=C1CC(c2ccc3c(c2)OCO3)Nc2ccccc21` (stereo not drawn), TGI 21.3 µM. Against it:
- O=[N+]([O-])/C(C(Cl)=C(Cl)Cl)=C(\SCc1ccccc1)N1CCCCC1 — 1.6-fold higher, 34.6 µM
- CCCN=C1CCN(Cc2ccccc2)c2ccccc2N1 — higher, > 100 µM
- CCC(CO)Nc1nc2ccc(Cl)cc2c2ccccc12 (stereo not drawn) — within 1.5-fold, 24.7 µM
- FC(F)(F)c1cc(Cl)cnc1N/N=C(/c1ccccc1)c1ccccn1 — 1.7-fold lower, 12.7 µM

Point of comparison: `CCC(CO)Nc1nc2ccc(Cl)cc2c2ccccc12` (stereo not drawn), GI50 12.2 µM. Against it:
- O=C1CC(c2ccc3c(c2)OCO3)Nc2ccccc21 (stereo not drawn) — 2.4-fold lower, 5.01 µM

Each molecule was assayed on M14 melanoma (assay: NCI tumour cell line growth inhibition, 48 h).

Point of comparison: `FC(F)(F)c1cc(Cl)cnc1N/N=C(/c1ccccc1)c1ccccn1`, TGI 5.04 µM. Against it:
- O=[N+]([O-])/C(C(Cl)=C(Cl)Cl)=C(\SCc1ccccc1)N1CCCCC1 — 9-fold higher, 45.6 µM
- CCCN=C1CCN(Cc2ccccc2)c2ccccc2N1 — 6.2-fold higher, 31.3 µM
- O=C1CC(c2ccc3c(c2)OCO3)Nc2ccccc21 (stereo not drawn) — 6.1-fold higher, 30.5 µM
- CCC(CO)Nc1nc2ccc(Cl)cc2c2ccccc12 (stereo not drawn) — 5.1-fold higher, 25.6 µM

Point of comparison: `CCC(CO)Nc1nc2ccc(Cl)cc2c2ccccc12` (stereo not drawn), GI50 12.8 µM. Against it:
- O=C1CC(c2ccc3c(c2)OCO3)Nc2ccccc21 (stereo not drawn) — within 1.5-fold, 14 µM

Each molecule was assayed on NCI-H460 lung (assay: NCI tumour cell line growth inhibition, 48 h).

Point of comparison: `O=C1CC(c2ccc3c(c2)OCO3)Nc2ccccc21` (stereo not drawn), TGI 33.7 µM. Against it:
- O=[N+]([O-])/C(C(Cl)=C(Cl)Cl)=C(\SCc1ccccc1)N1CCCCC1 — 2.3-fold higher, 78 µM
- CCCN=C1CCN(Cc2ccccc2)c2ccccc2N1 — within 1.5-fold, 36.3 µM
- CCC(CO)Nc1nc2ccc(Cl)cc2c2ccccc12 (stereo not drawn) — 2.3-fold lower, 14.8 µM
- FC(F)(F)c1cc(Cl)cnc1N/N=C(/c1ccccc1)c1ccccn1 — 2.2-fold lower, 15 µM

Point of comparison: `O=C1CC(c2ccc3c(c2)OCO3)Nc2ccccc21` (stereo not drawn), GI50 9.02 µM. Against it:
- CCC(CO)Nc1nc2ccc(Cl)cc2c2ccccc12 (stereo not drawn) — 2.3-fold lower, 3.93 µM

These molecules were tested on HOP-62 NSCLC (assay: NCI tumour cell line growth inhibition, 48 h).

Point of comparison: `CCC(CO)Nc1nc2ccc(Cl)cc2c2ccccc12` (stereo not drawn), TGI 21 µM. Against it:
- O=[N+]([O-])/C(C(Cl)=C(Cl)Cl)=C(\SCc1ccccc1)N1CCCCC1 — higher, > 100 µM
- CCCN=C1CCN(Cc2ccccc2)c2ccccc2N1 — higher, > 100 µM
- O=C1CC(c2ccc3c(c2)OCO3)Nc2ccccc21 (stereo not drawn) — 4.1-fold higher, 86 µM
- FC(F)(F)c1cc(Cl)cnc1N/N=C(/c1ccccc1)c1ccccn1 — within 1.5-fold, 19.7 µM

Point of comparison: `O=C1CC(c2ccc3c(c2)OCO3)Nc2ccccc21` (stereo not drawn), GI50 14.2 µM. Against it:
- CCC(CO)Nc1nc2ccc(Cl)cc2c2ccccc12 (stereo not drawn) — 1.8-fold lower, 7.95 µM

The molecules below were run on SNB-75 CNS (assay: NCI tumour cell line growth inhibition, 48 h).

Point of comparison: `CCC(CO)Nc1nc2ccc(Cl)cc2c2ccccc12` (stereo not drawn), TGI 18 µM. Against it:
- CCCN=C1CCN(Cc2ccccc2)c2ccccc2N1 — 1.5-fold higher, 27.5 µM
- O=C1CC(c2ccc3c(c2)OCO3)Nc2ccccc21 (stereo not drawn) — within 1.5-fold, 18.5 µM
- FC(F)(F)c1cc(Cl)cnc1N/N=C(/c1ccccc1)c1ccccn1 — 5.4-fold lower, 3.33 µM

Point of comparison: `CCC(CO)Nc1nc2ccc(Cl)cc2c2ccccc12` (stereo not drawn), GI50 4.38 µM. Against it:
- O=C1CC(c2ccc3c(c2)OCO3)Nc2ccccc21 (stereo not drawn) — within 1.5-fold, 4.04 µM

These molecules were tested on MALME-3M melanoma (assay: NCI tumour cell line growth inhibition, 48 h).

Point of comparison: `CCC(CO)Nc1nc2ccc(Cl)cc2c2ccccc12` (stereo not drawn), TGI 29.3 µM. Against it:
- O=[N+]([O-])/C(C(Cl)=C(Cl)Cl)=C(\SCc1ccccc1)N1CCCCC1 — within 1.5-fold, 27.1 µM
- CCCN=C1CCN(Cc2ccccc2)c2ccccc2N1 — within 1.5-fold, 22.1 µM
- O=C1CC(c2ccc3c(c2)OCO3)Nc2ccccc21 (stereo not drawn) — within 1.5-fold, 30.2 µM

Point of comparison: `CCC(CO)Nc1nc2ccc(Cl)cc2c2ccccc12` (stereo not drawn), GI50 15.7 µM. Against it:
- O=C1CC(c2ccc3c(c2)OCO3)Nc2ccccc21 (stereo not drawn) — within 1.5-fold, 14.5 µM

What follows are molecules tested on A549 NSCLC (assay: NCI tumour cell line growth inhibition, 48 h).

Point of comparison: `CCC(CO)Nc1nc2ccc(Cl)cc2c2ccccc12` (stereo not drawn), TGI 20.4 µM. Against it:
- O=[N+]([O-])/C(C(Cl)=C(Cl)Cl)=C(\SCc1ccccc1)N1CCCCC1 — higher, > 100 µM
- CCCN=C1CCN(Cc2ccccc2)c2ccccc2N1 — higher, > 100 µM
- O=C1CC(c2ccc3c(c2)OCO3)Nc2ccccc21 (stereo not drawn) — 3.8-fold higher, 76.6 µM
- FC(F)(F)c1cc(Cl)cnc1N/N=C(/c1ccccc1)c1ccccn1 — within 1.5-fold, 22.9 µM

Point of comparison: `O=C1CC(c2ccc3c(c2)OCO3)Nc2ccccc21` (stereo not drawn), GI50 17.1 µM. Against it:
- CCC(CO)Nc1nc2ccc(Cl)cc2c2ccccc12 (stereo not drawn) — 2.8-fold lower, 6.05 µM

These molecules were tested on MDA-MB-435 (assay: NCI tumour cell line growth inhibition, 48 h).

Point of comparison: `O=C1CC(c2ccc3c(c2)OCO3)Nc2ccccc21` (stereo not drawn), TGI 31.1 µM. Against it:
- O=[N+]([O-])/C(C(Cl)=C(Cl)Cl)=C(\SCc1ccccc1)N1CCCCC1 — within 1.5-fold, 35.5 µM
- CCCN=C1CCN(Cc2ccccc2)c2ccccc2N1 — within 1.5-fold, 45 µM
- CCC(CO)Nc1nc2ccc(Cl)cc2c2ccccc12 (stereo not drawn) — 1.7-fold lower, 18.8 µM
- FC(F)(F)c1cc(Cl)cnc1N/N=C(/c1ccccc1)c1ccccn1 — higher, > 100 µM

Point of comparison: `O=C1CC(c2ccc3c(c2)OCO3)Nc2ccccc21` (stereo not drawn), GI50 4.94 µM. Against it:
- CCC(CO)Nc1nc2ccc(Cl)cc2c2ccccc12 (stereo not drawn) — within 1.5-fold, 6.14 µM

The molecules below were run on NCI-H23 lung (assay: NCI tumour cell line growth inhibition, 48 h).

Point of comparison: `O=C1CC(c2ccc3c(c2)OCO3)Nc2ccccc21` (stereo not drawn), TGI 32.7 µM. Against it:
- O=[N+]([O-])/C(C(Cl)=C(Cl)Cl)=C(\SCc1ccccc1)N1CCCCC1 — within 1.5-fold, 42.1 µM
- CCCN=C1CCN(Cc2ccccc2)c2ccccc2N1 — within 1.5-fold, 41.5 µM
- CCC(CO)Nc1nc2ccc(Cl)cc2c2ccccc12 (stereo not drawn) — within 1.5-fold, 25.9 µM
- FC(F)(F)c1cc(Cl)cnc1N/N=C(/c1ccccc1)c1ccccn1 — 2.3-fold lower, 14.4 µM

Point of comparison: `CCC(CO)Nc1nc2ccc(Cl)cc2c2ccccc12` (stereo not drawn), GI50 12.3 µM. Against it:
- O=C1CC(c2ccc3c(c2)OCO3)Nc2ccccc21 (stereo not drawn) — within 1.5-fold, 12.2 µM

These molecules were tested on OVCAR-4 ovarian (assay: NCI tumour cell line growth inhibition, 48 h).

Point of comparison: `O=C1CC(c2ccc3c(c2)OCO3)Nc2ccccc21` (stereo not drawn), TGI 56.7 µM. Against it:
- O=[N+]([O-])/C(C(Cl)=C(Cl)Cl)=C(\SCc1ccccc1)N1CCCCC1 — within 1.5-fold, 51.5 µM
- CCCN=C1CCN(Cc2ccccc2)c2ccccc2N1 — higher, > 100 µM
- CCC(CO)Nc1nc2ccc(Cl)cc2c2ccccc12 (stereo not drawn) — 2.2-fold lower, 25.5 µM
- FC(F)(F)c1cc(Cl)cnc1N/N=C(/c1ccccc1)c1ccccn1 — 1.9-fold lower, 29.4 µM

Point of comparison: `O=C1CC(c2ccc3c(c2)OCO3)Nc2ccccc21` (stereo not drawn), GI50 12.2 µM. Against it:
- CCC(CO)Nc1nc2ccc(Cl)cc2c2ccccc12 (stereo not drawn) — within 1.5-fold, 11.9 µM

The molecules below were run on SNB-19 CNS (assay: NCI tumour cell line growth inhibition, 48 h).

Point of comparison: `O=C1CC(c2ccc3c(c2)OCO3)Nc2ccccc21` (stereo not drawn), TGI 30.2 µM. Against it:
- O=[N+]([O-])/C(C(Cl)=C(Cl)Cl)=C(\SCc1ccccc1)N1CCCCC1 — higher, > 100 µM
- CCCN=C1CCN(Cc2ccccc2)c2ccccc2N1 — higher, > 100 µM
- CCC(CO)Nc1nc2ccc(Cl)cc2c2ccccc12 (stereo not drawn) — within 1.5-fold, 21.3 µM
- FC(F)(F)c1cc(Cl)cnc1N/N=C(/c1ccccc1)c1ccccn1 — higher, > 100 µM

Point of comparison: `O=C1CC(c2ccc3c(c2)OCO3)Nc2ccccc21` (stereo not drawn), GI50 12.5 µM. Against it:
- CCC(CO)Nc1nc2ccc(Cl)cc2c2ccccc12 (stereo not drawn) — within 1.5-fold, 8.53 µM

What follows are molecules tested on SK-OV-3 ovarian (assay: NCI tumour cell line growth inhibition, 48 h).

Point of comparison: `CCC(CO)Nc1nc2ccc(Cl)cc2c2ccccc12` (stereo not drawn), TGI 24.1 µM. Against it:
- O=[N+]([O-])/C(C(Cl)=C(Cl)Cl)=C(\SCc1ccccc1)N1CCCCC1 — higher, > 100 µM
- CCCN=C1CCN(Cc2ccccc2)c2ccccc2N1 — higher, > 100 µM
- O=C1CC(c2ccc3c(c2)OCO3)Nc2ccccc21 (stereo not drawn) — higher, > 100 µM
- FC(F)(F)c1cc(Cl)cnc1N/N=C(/c1ccccc1)c1ccccn1 — 2.4-fold lower, 9.9 µM

Point of comparison: `CCC(CO)Nc1nc2ccc(Cl)cc2c2ccccc12` (stereo not drawn), GI50 11.8 µM. Against it:
- O=C1CC(c2ccc3c(c2)OCO3)Nc2ccccc21 (stereo not drawn) — within 1.5-fold, 16.8 µM

These molecules were tested on SK-MEL-2 melanoma (assay: NCI tumour cell line growth inhibition, 48 h).

Point of comparison: `CCCN=C1CCN(Cc2ccccc2)c2ccccc2N1`, TGI 31.6 µM. Against it:
- O=[N+]([O-])/C(C(Cl)=C(Cl)Cl)=C(\SCc1ccccc1)N1CCCCC1 — 1.7-fold higher, 55 µM
- O=C1CC(c2ccc3c(c2)OCO3)Nc2ccccc21 (stereo not drawn) — higher, > 62.8 µM

`O=C1CC(c2ccc3c(c2)OCO3)Nc2ccccc21` (stereo not drawn) showed a GI50 of 12.7 µM.
